Laboratory results published in US9902702B2, “Spirocycloheptanes as inhibitors of rock” (BRISTOL-MYERS SQUIBB COMPANY, priority 2014, dated 2018).
Counter-ions that a name gives are not always drawn.

Molecular target: ROCK2 (Homo sapiens, UniProt O75116)
Experiment: ROCK assay: phosphorylation of FITC peptide substrate, LABCHIP 3000 mobility shift
Type: biochemical
Settings: 5 μM ATP, 1.5 μM peptide substrate; read-out: ROCK2 Activity (ROCK IC50 range)
How it was run: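 IC50 values come from curve-fitting percent kinase inhibition across a compound dilution series. The reaction is started with Rho kinase variant in HEPES pH 7.5 buffer with MgCl2, Brij-35 and DTT, with 5 μM ATP, 1.5 μM FITC-labelled peptide and under 2% DMSO. After EDTA quench, product and substrate are separated by microfluidic mobility shift.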

Chain of ROCK2 (O75116 whole entry, species assumed): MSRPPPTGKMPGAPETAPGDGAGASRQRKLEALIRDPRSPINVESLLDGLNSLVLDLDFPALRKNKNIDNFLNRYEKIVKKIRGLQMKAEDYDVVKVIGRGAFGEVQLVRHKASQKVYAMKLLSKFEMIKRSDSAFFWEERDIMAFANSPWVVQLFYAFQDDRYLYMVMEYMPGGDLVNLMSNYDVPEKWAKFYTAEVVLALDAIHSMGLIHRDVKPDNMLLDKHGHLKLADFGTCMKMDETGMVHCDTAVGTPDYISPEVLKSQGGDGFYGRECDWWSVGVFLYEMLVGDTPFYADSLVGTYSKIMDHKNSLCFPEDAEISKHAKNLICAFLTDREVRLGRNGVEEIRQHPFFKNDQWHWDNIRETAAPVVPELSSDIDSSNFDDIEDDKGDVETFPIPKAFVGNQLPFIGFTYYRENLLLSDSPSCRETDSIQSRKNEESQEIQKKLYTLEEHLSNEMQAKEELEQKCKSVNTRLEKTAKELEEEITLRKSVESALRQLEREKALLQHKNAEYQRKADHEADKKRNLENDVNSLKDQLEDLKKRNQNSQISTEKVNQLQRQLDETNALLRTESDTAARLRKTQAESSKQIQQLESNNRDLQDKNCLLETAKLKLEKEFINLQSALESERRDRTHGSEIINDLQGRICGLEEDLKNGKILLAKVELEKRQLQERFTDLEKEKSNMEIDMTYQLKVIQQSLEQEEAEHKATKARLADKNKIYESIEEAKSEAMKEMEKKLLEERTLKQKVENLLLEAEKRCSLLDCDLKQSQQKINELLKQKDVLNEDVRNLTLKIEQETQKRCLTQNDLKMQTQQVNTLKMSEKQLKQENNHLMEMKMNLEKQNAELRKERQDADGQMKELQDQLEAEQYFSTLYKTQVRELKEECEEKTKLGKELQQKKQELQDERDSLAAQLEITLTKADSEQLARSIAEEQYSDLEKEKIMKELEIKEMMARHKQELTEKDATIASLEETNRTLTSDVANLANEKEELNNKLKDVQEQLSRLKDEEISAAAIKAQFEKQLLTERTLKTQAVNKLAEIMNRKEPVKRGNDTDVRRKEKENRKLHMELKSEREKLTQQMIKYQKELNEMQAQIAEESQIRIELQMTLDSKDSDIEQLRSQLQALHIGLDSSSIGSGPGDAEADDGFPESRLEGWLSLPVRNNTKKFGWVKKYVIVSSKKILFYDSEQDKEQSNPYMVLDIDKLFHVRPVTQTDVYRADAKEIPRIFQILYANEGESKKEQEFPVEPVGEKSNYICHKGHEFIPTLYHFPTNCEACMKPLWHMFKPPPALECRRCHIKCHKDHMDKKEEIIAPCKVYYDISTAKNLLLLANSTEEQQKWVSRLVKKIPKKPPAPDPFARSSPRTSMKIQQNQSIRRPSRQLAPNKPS

Row | IC50 | SMILES
1 | 0.2 to 2 nM | [H][C@]1(c2n[nH]c(=O)c3ccccc32)C[C@]2(C[C@@H](NC(=O)c3cnc4cc(-c5cccnc5)ccn34)C2)C1 (stereo partly drawn) [Example 452, N-((aR)-6-(4-oxo-3,4-dihydrophthalazin-1-yl)spiro[3.3]heptan-2-yl)-7-(pyridin-3-yl)imidazo[1,2-a]pyridine-3-carboxamide]
2 | 2.01 to 5 nM | Cc1sc(N2CCC(F)C2)nc1C(=O)NC1CC2(C1)CC(c1n[nH]c(=O)c3ccccc13)C2 [Example 58, 2-((S)-3-fluoropyrrolidin-1-yl)-5-methyl-N-((aR)-6-(4-oxo-3,4-dihydrophthalazin-1-yl)spiro[3.3]heptan-2-yl)thiazole-4-carboxamide]
3 | 5.1 to 15 nM | O=C(N[C@H]1CC2(C1)C[C@H](c1n[nH]c(=O)c3ccccc31)C2)c1cc2ccccn2n1 (stereo partly drawn) [Example 325, N-((aR)-6-(4-oxo-3,4-dihydrophthalazin-1-yl)spiro[3.3]heptan-2-yl)pyrazolo[1,5-a]pyridine-2-carboxamide]
4 | 5.1 to 15 nM | O=C(N[C@H]1CC2(C1)C[C@H](c1n[nH]c(=O)c3ccccc31)C2)c1cnn2cc(N3CCCC3=O)ccc12 (stereo partly drawn) [Example 165, N-((aR)-6-(4-oxo-3,4-dihydrophthalazin-1-yl)spiro[3.3]heptan-2-yl)-6-(2-oxopyrrolidin-1-yl)pyrazolo[1,5-a]pyridine-3-carboxamide]
5 | 2.01 to 5 nM | [H][C@]1(c2n[nH]c(=O)c3ccccc32)C[C@@]2(C[C@H](NC(=O)c3cnc4cc(N5CC[C@@H](O)C5)ccn34)C2)C1 (stereo partly drawn) [Example 395, 7-((R)-3-hydroxypyrrolidin-1-yl)-N-((aR)-6-(4-oxo-3,4-dihydrophthalazin-1-yl)spiro[3.3]heptan-2-yl)imidazo[1,2-a]pyridine-3-carboxamide]
6 | 5.1 to 15 nM | [H][C@]1(c2n[nH]c(=O)c3ccccc32)C[C@]2(C[C@@H](NC(=O)c3cccc(-c4cc[nH]n4)c3)C2)C1 (stereo partly drawn) [Example 361, N-((aR)-6-(4-oxo-3,4-dihydrophthalazin-1-yl)spiro[3.3]heptan-2-yl)-3-(1H-pyrazol-3-yl)benzamide]
7 | 2.01 to 5 nM | [H][C@]1(c2n[nH]c(=O)c3ccccc32)C[C@@]2(C[C@H](NC(=O)c3cc4c(Cl)cccc4n3C)C2)C1 (stereo partly drawn) [Example 297, 4-chloro-1-methyl-N-((aR)-6-(4-oxo-3,4-dihydrophthalazin-1-yl)spiro[3.3]heptan-2-yl)-1H-indole-2-carboxamide]
8 | 5.1 to 15 nM | O=C(N[C@H]1CC2(C1)C[C@H](c1n[nH]c(=O)c3ccccc31)C2)c1ccn(CC(F)(F)F)n1 (single isomer, unassigned) [Example 15]
9 | 2.01 to 5 nM | CC(C)(O)COc1ccc2c(C(=O)NC3CC4(C3)CC(c3n[nH]c(=O)c5ccccc35)C4)cnn2c1 [Example 67, 6-(2-hydroxy-2-methylpropoxy)-N-((aR)-6-(4-oxo-3,4-dihydrophthalazin-1-yl)spiro[3.3]heptan-2-yl)pyrazolo[1,5-a]pyridine-3-carboxamide]
10 | 2.01 to 5 nM | Cc1c(C(=O)NC2CC3(C2)CC(c2n[nH]c(=O)c4ccccc24)C3)cnn1-c1ccccc1 (stereo not drawn) [Example 13, 5-methyl-N-[6-(4-oxo-3,4-dihydrophthalazin-1-yl)spiro[3.3]heptan-2-yl]-1-phenyl-1H-pyrazole-4-carboxamide]
11 | 0.2 to 2 nM | [H][C@]1(c2n[nH]c(=O)c3ccccc32)C[C@]2(C[C@@H](NC(=O)c3cnc4cc(OCC(C)(C)O)ccn34)C2)C1 (stereo partly drawn) [Example 400, 7-(2-hydroxy-2-methylpropoxy)-N-((aR)-6-(4-oxo-3,4-dihydrophthalazin-1-yl)spiro[3.3]heptan-2-yl)imidazo[1,2-a]pyridine-3-carboxamide]
12 | 5.1 to 15 nM | CC(C)n1cc(-c2ccc3c(c2)CCN3C(=O)NC2CC3(C2)CC(c2n[nH]c(=O)c4ccccc24)C3)c(C(F)(F)F)n1 [Example 244, 5-(1-isopropyl-3-(trifluoromethyl)-1H-pyrazol-4-yl)-N-((aR)-6-(4-oxo-3,4-dihydrophthalazin-1-yl)spiro[3.3]heptan-2-yl)indoline-1-carboxamide]
13 | 2.01 to 5 nM | [H][C@]1(c2n[nH]c(=O)c3ccccc32)C[C@]2(C[C@@H](NC(=O)c3cc4ccccc4cn3)C2)C1 (stereo partly drawn) [Example 326, N-((aR)-6-(4-oxo-3,4-dihydrophthalazin-1-yl)spiro[3.3]heptan-2-yl)isoquinoline-3-carboxamide]
14 | 2.01 to 5 nM | O=C(NC1CC2(C1)CC(c1n[nH]c(=O)c3ccccc13)C2)c1cnn2cc(N3CCC(F)(F)CC3)ccc12 [Example 82, 6-(4,4-difluoropiperidin-1-yl)-N-((aR)-6-(4-oxo-3,4-dihydrophthalazin-1-yl)spiro[3.3]heptan-2-yl)pyrazolo[1,5-a]pyridine-3-carboxamide]
15 | 5.1 to 15 nM | [H][C@]1(c2n[nH]c(=O)c3ccccc32)C[C@@]2(C[C@H](NC(=O)c3cc4cccc(OC)c4[nH]3)C2)C1 (stereo partly drawn) [Example 295, 7-methoxy-N-((aR)-6-(4-oxo-3,4-dihydrophthalazin-1-yl)spiro[3.3]heptan-2-yl)-1H-indole-2-carboxamide]
16 | 2.01 to 5 nM | O=C(NC1CC2(C1)CC(c1n[nH]c(=O)c3ccccc13)C2)c1cnn2cc(CCCN3CCC(F)(F)CC3)ccc12 [Example 196, 6-(3-(4,4-difluoropiperidin-1-yl)propyl)-N-((aR)-6-(4-oxo-3,4-dihydrophthalazin-1-yl)spiro[3.3]heptan-2-yl)pyrazolo[1,5-a]pyridine-3-carboxamide]
17 | 5.1 to 15 nM | [2H]C([2H])([2H])n1cc(-c2ccc(C(=O)N[C@H]3CC4(C3)C[C@H](c3n[nH]c(=O)c5ccccc53)C4)cc2F)cn1 (stereo partly drawn) [Example 427, 3-fluoro-4-(1-d3-methyl-1H-pyrazol-4-yl)-N-((aR)-6-(4-oxo-3,4-dihydrophthalazin-1-yl)spiro[3.3]heptan-2-yl)benzamide]
18 | 100 to 2100 nM | O=C(N[C@H]1CC2(C1)C[C@H](c1n[nH]c(=O)c3ccccc31)C2)N1CC2(CCNCC2)c2ccccc21 (stereo partly drawn) [Example 265, N-((aR)-6-(4-oxo-3,4-dihydrophthalazin-1-yl)spiro[3.3]heptan-2-yl)spiro[indoline-3,4′-piperidine]-1-carboxamide]
19 | 0.2 to 2 nM | [H][C@]1(c2n[nH]c(=O)c3ccccc32)C[C@]2(C[C@@H](NC(=O)c3cc4ccc(F)c(C)c4[nH]3)C2)C1 (stereo partly drawn) [Example 329, 6-fluoro-7-methyl-N-((aR)-6-(4-oxo-3,4-dihydrophthalazin-1-yl)spiro[3.3]heptan-2-yl)-1H-indole-2-carboxamide]
20 | 2.01 to 5 nM | CC(C)(O)Cn1nc(C(=O)NC2CC3(C2)CC(c2n[nH]c(=O)c4ccccc24)C3)c2cc(F)ccc21 [Example 65, 5-fluoro-1-(2-hydroxy-2-methylpropyl)-N-((aR)-6-(4-oxo-3,4-dihydrophthalazin-1-yl)spiro[3.3]heptan-2-yl)-1H-indazole-3-carboxamide]
21 | 100 to 2100 nM | O=C(N[C@H]1CC2(C1)C[C@H](c1n[nH]c(=O)c3ccccc31)C2)c1ccn(CC(F)F)n1 (stereo partly drawn) [Example 19, 1-(2,2-Difluoroethyl)-N-[(aR)-6-(4-oxo-3,4-dihydrophthalazin-1-yl)spiro[3.3]heptan-2-yl]-1H-pyrazole-3-carboxamide]
22 | 15.1 to 100 nM | O=C(NC1CC2(C1)CC(c1n[nH]c(=O)c3ccccc13)C2)c1cnn(-c2ccccc2)c1 (stereo not drawn) [Example 12, N-[6-(4-oxo-3,4-dihydrophthalazin-1-yl)spiro[3.3]heptan-2-yl]-1-phenyl-1H-pyrazole-4-carboxamide]
23 | 0.2 to 2 nM | O=C(N[C@H]1CC2(C1)C[C@H](c1n[nH]c(=O)c3ccccc31)C2)c1cnc2cc(N3CCOCC3)ccn12 (stereo partly drawn) [Example 470, 7-morpholino-N-((aR)-6-(4-oxo-3,4-dihydrophthalazin-1-yl)spiro[3.3]heptan-2-yl)imidazo[1,2-a]pyridine-3-carboxamide, TFA]
24 | 15.1 to 100 nM | CCn1nccc1C(=O)NC1CC2(C1)CC(c1n[nH]c(=O)c3ccccc13)C2 [Example 285, 1-ethyl-N-((aR)-6-(4-oxo-3,4-dihydrophthalazin-1-yl)spiro[3.3]heptan-2-yl)-1H-pyrazole-5-carboxamide]
25 | 15.1 to 100 nM | O=C(NC1CC2(C1)CC(F)(c1n[nH]c(=O)c3ccccc13)C2)c1cnn2ccccc12 (stereo not drawn) [Example 164, N-(6-fluoro-6-(4-oxo-3,4-dihydrophthalazin-1-yl)spiro[3.3]heptan-2-yl)pyrazolo[1,5-α]pyridine-3-carboxamide]
26 | 5.1 to 15 nM | [2H]C([2H])([2H])n1cc(-c2ccc(NC(=O)NC3CC4(C3)CC(c3n[nH]c(=O)c5ccccc35)C4)cc2)cn1 [Example 229, 1-(4-(1-(^2H3)methyl-1H-pyrazol-4-yl)phenyl)-3-((aR)-6-(4-oxo-3,4-dihydrophthalazin-1-yl)spiro[3.3]heptan-2-yl)urea]
27 | 5.1 to 15 nM | [H][C@]1(c2n[nH]c(=O)c3ccccc32)C[C@]2(C[C@@H](NC(=O)c3nc(C(C)C)n4ccccc34)C2)C1 (stereo partly drawn) [Example 435, 3-isopropyl-N-((aR)-6-(4-oxo-3,4-dihydrophthalazin-1-yl)spiro[3.3]heptan-2-yl)imidazo[1,5-a]pyridine-1-carboxamide]
28 | 15.1 to 100 nM | [H][C@]1(c2n[nH]c(=O)c3ccccc32)C[C@]2(C[C@@H](NC(=O)c3ccc(-n4cccn4)nc3)C2)C1 (stereo partly drawn) [Example 346, N-((aR)-6-(4-oxo-3,4-dihydrophthalazin-1-yl)spiro[3.3]heptan-2-yl)-6-(1H-pyrazol-1-yl)nicotinamide]
29 | 100 to 2100 nM | O=C(CCc1ccccc1)NC1CC2(C1)CC(c1n[nH]c(=O)c3ccccc13)C2 (stereo not drawn) [Example 6, N-[6-(4-oxo-3,4-dihydrophthalazin-1-yl)spiro[3.3]heptan-2-yl]-3-phenylpropanamide]

Row | SMILES | IC50
30 | O=C(NC1CC2(C1)CC(c1n[nH]c(=O)c3ccccc13)C2)c1cnn2cc(OC3CC(F)(F)C3)ccc12 (stereo not drawn) [Example 138, 6-(3,3-difluorocyclobutoxy)-N-((αR)-6-(4-oxo-3,4-dihydrophthalazin-1-yl)spiro[3.3]heptan-2-yl)pyrazolo[1,5-α]pyridine-3-carboxamide] | 0.2 to 2 nM
